Measured values from ChEMBL document CHEMBL1201862, “PubChem BioAssay data set” (2004).
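Test compounds were applied to cells in 96-well plates for 48 hours at 5 doses. Here, GI50 denotes the concentration required for 50% inhibition of growth.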 The source made the active and inactive calls. Cut-off read from the data, not from the text of the source: active = GI50 up to about 1.1 µM and inactive = higher.

How the values were obtained:
Assay in all cases: growth of human tumour cells (NCI), 48 h
A498 = tested on: A498
A549 = tested on: A549
EKVX = tested on: EKVX
Hs-578T = tested on: Hs-578T
IGROV-1 = tested on: IGROV-1
KM12 = tested on: KM12
M14 = tested on: M14
MCF7 = tested on: MCF7
NCI-H460 = tested on: NCI-H460
NCI/ADR-RES = tested on: NCI/ADR-RES
OVCAR-3 = tested on: OVCAR-3
OVCAR-5 = tested on: OVCAR-5
RXF 393 = tested on: RXF 393
SK-MEL-2 = tested on: SK-MEL-2
SNB-19 = tested on: SNB-19
SNB-75 = tested on: SNB-75
SW-620 = tested on: SW-620
UACC-257 = tested on: UACC-257
ACHN = tested on: ACHN
NCI-H23 = tested on: NCI-H23

Measured: GI50

COc1ccccc1N=C(S)Nc1ccccn1
inactive: A498 > 100 µM | A549 > 100 µM | EKVX 55 µM | Hs-578T 84.7 µM | IGROV-1 > 100 µM | KM12 > 100 µM | M14 > 100 µM | MCF7 > 100 µM | NCI-H460 > 100 µM | NCI/ADR-RES > 100 µM | OVCAR-3 > 100 µM | OVCAR-5 > 100 µM | RXF 393 59 µM | SK-MEL-2 > 100 µM | SNB-19 73.8 µM | SNB-75 36.7 µM | SW-620 > 100 µM | UACC-257 > 100 µM

O=C1Nc2ccccc2/C1=N/NC(=S)Nc1cccc(Cl)c1
inactive: A498 4.03 µM | A549 7.08 µM | ACHN 6.34 µM | EKVX 10.3 µM | Hs-578T 33.4 µM | IGROV-1 17.2 µM | KM12 7.26 µM | M14 10.4 µM | MCF7 8.43 µM | NCI-H23 6.97 µM | NCI-H460 5.52 µM | NCI/ADR-RES 2.37 µM | OVCAR-3 2.68 µM | OVCAR-5 24.5 µM | RXF 393 7.6 µM | SK-MEL-2 22 µM | SNB-19 16.6 µM | SW-620 4.09 µM | UACC-257 29.4 µM

O=C1CC(c2ccccc2)n2c(nc3ccccc32)N1 (stereo not given)
inactive: A498 45.5 µM | A549 > 100 µM | ACHN > 100 µM | EKVX 73.5 µM | Hs-578T 76.9 µM | IGROV-1 47.4 µM | KM12 > 100 µM | M14 > 100 µM | MCF7 67.1 µM | NCI-H23 64.1 µM | NCI-H460 > 100 µM | NCI/ADR-RES > 100 µM | OVCAR-3 54.2 µM | OVCAR-5 > 100 µM | RXF 393 21 µM | SK-MEL-2 18.9 µM | SNB-19 > 100 µM | SW-620 51.9 µM | UACC-257 41.9 µM

NNc1nc2ccccc2s1
inactive: A498 > 100 µM | A549 > 100 µM | ACHN > 100 µM | EKVX > 100 µM | Hs-578T > 100 µM | IGROV-1 > 100 µM | KM12 > 100 µM | M14 > 100 µM | MCF7 > 100 µM | NCI-H23 > 100 µM | NCI-H460 > 100 µM | NCI/ADR-RES > 100 µM | OVCAR-5 > 100 µM | RXF 393 > 100 µM | SK-MEL-2 > 100 µM | SNB-19 > 100 µM | SNB-75 > 100 µM | SW-620 > 100 µM | UACC-257 > 100 µM

O=C(c1ccccc1)n1c(Cc2ccccc2)nc2cc(C34CC5CC(CC(C5)C3)C4)ccc21
inactive: A498 62.1 µM | A549 37.7 µM | ACHN 34.8 µM | EKVX 81.8 µM | Hs-578T > 100 µM | IGROV-1 53.6 µM | KM12 69.7 µM | M14 43.4 µM | MCF7 24.4 µM | NCI-H23 27.4 µM | NCI-H460 52.7 µM | NCI/ADR-RES 31.8 µM | OVCAR-5 56.8 µM | RXF 393 27.4 µM | SK-MEL-2 31.9 µM | SNB-19 58.1 µM | SNB-75 31.6 µM | SW-620 80.7 µM | UACC-257 53.1 µM

Cc1cc(Cl)nc(Nc2nc3ccccc3[nH]2)n1
inactive: A498 > 100 µM | A549 > 100 µM | ACHN > 100 µM | Hs-578T 40.1 µM | IGROV-1 > 100 µM | M14 > 100 µM | MCF7 > 100 µM | NCI-H23 > 100 µM | NCI-H460 > 100 µM | NCI/ADR-RES > 100 µM | OVCAR-3 > 100 µM | OVCAR-5 > 100 µM | RXF 393 > 100 µM | SK-MEL-2 > 100 µM | SNB-19 > 100 µM | SNB-75 > 100 µM | SW-620 > 100 µM | UACC-257 > 100 µM

O=c1c2cc(-c3ccccc3)sc2nc2n1N=C(c1ccc(Cl)cc1)CS2
inactive: A498 > 100 µM | A549 > 100 µM | ACHN > 100 µM | EKVX > 100 µM | Hs-578T > 100 µM | IGROV-1 > 100 µM | KM12 > 100 µM | MCF7 > 100 µM | NCI-H23 > 100 µM | NCI-H460 > 100 µM | NCI/ADR-RES > 100 µM | OVCAR-3 > 100 µM | OVCAR-5 > 100 µM | RXF 393 > 100 µM | SNB-75 > 100 µM | SW-620 > 100 µM | UACC-257 > 100 µM

O=c1[nH]c(N/N=C\C(=N/Nc2nc3ccccc3c(=O)[nH]2)C(O)C(O)C(O)CO)nc2ccccc12 (stereo not given)
inactive: A498 > 100 µM | A549 > 100 µM | ACHN > 100 µM | EKVX > 100 µM | Hs-578T > 100 µM | IGROV-1 > 100 µM | KM12 > 100 µM | M14 > 100 µM | MCF7 > 100 µM | NCI-H23 > 100 µM | NCI-H460 > 100 µM | NCI/ADR-RES > 100 µM | OVCAR-3 > 100 µM | OVCAR-5 > 100 µM | SK-MEL-2 > 100 µM | SNB-19 > 100 µM | SNB-75 > 100 µM | SW-620 > 100 µM | UACC-257 > 100 µM

CC1=C(C)Cc2c(O)ccc(O)c2C1
inactive: A498 83.9 µM | A549 18.7 µM | ACHN 17.4 µM | EKVX 14.5 µM | Hs-578T 17.7 µM | KM12 31.3 µM | M14 16.2 µM | MCF7 19.2 µM | NCI-H23 27.9 µM | NCI-H460 43.7 µM | NCI/ADR-RES 36.5 µM | OVCAR-3 20.4 µM | OVCAR-5 20.7 µM | RXF 393 15.9 µM | SNB-19 > 100 µM | SNB-75 16.2 µM | SW-620 18.3 µM | UACC-257 18.2 µM

Cc1cn([C@H]2C[C@@H]3[C@@H](COC(CCl)N3O)O2)c(=O)[nH]c1=O (stereo not given in full)
inactive: A498 > 100 µM | A549 > 100 µM | EKVX > 100 µM | Hs-578T > 100 µM | IGROV-1 > 100 µM | KM12 > 100 µM | M14 > 100 µM | MCF7 > 100 µM | NCI-H460 > 100 µM | NCI/ADR-RES > 100 µM | OVCAR-3 > 100 µM | OVCAR-5 > 100 µM | RXF 393 > 100 µM | SK-MEL-2 > 100 µM | SNB-19 > 100 µM | SNB-75 87.9 µM | SW-620 > 100 µM | UACC-257 > 100 µM

COc1ccc2nc(-c3ccc(OC(=O)N(C)C)cc3)cn2c1
inactive: A498 > 100 µM | A549 > 100 µM | ACHN > 100 µM | EKVX > 100 µM | Hs-578T > 100 µM | IGROV-1 > 100 µM | KM12 86.1 µM | M14 75.7 µM | MCF7 > 100 µM | NCI-H23 > 100 µM | NCI-H460 36 µM | NCI/ADR-RES > 100 µM | OVCAR-3 > 100 µM | OVCAR-5 > 100 µM | SK-MEL-2 > 100 µM | SNB-19 > 100 µM | SNB-75 > 100 µM | SW-620 > 100 µM | UACC-257 > 100 µM

COc1cc(S(=O)(=O)Nc2ccc(-c3csc(N4C(=O)CSC4c4cccc(Oc5ccccc5)c4)n3)cc2)ccc1Cl (stereo not given)
inactive: A498 59 µM | ACHN > 100 µM | EKVX 44.2 µM | Hs-578T 27.4 µM | IGROV-1 50.7 µM | KM12 35.2 µM | M14 53 µM | MCF7 20.6 µM | NCI-H23 40.4 µM | NCI/ADR-RES > 100 µM | OVCAR-3 64.3 µM | OVCAR-5 > 100 µM | RXF 393 16.7 µM | SNB-19 77.8 µM | SNB-75 58.1 µM | SW-620 43.8 µM

COC(=O)[C@]12CC[C@H]3CN(C(=O)OCc4ccccc4)[C@H]([C@H]31)[C@H](C(=O)OCC[Si](C)(C)C)N2S(=O)(=O)c1ccc(C)cc1
inactive: A498 16.7 µM | A549 18.4 µM | ACHN 54.7 µM | EKVX 89.9 µM | Hs-578T > 100 µM | IGROV-1 > 100 µM | KM12 97.3 µM | M14 26.5 µM | MCF7 37.3 µM | NCI-H23 > 100 µM | NCI-H460 > 100 µM | NCI/ADR-RES > 100 µM | OVCAR-3 > 100 µM | OVCAR-5 > 100 µM | RXF 393 4.74 µM | SK-MEL-2 96.4 µM | SNB-19 > 100 µM | SW-620 > 100 µM | UACC-257 20 µM

O=c1[nH]cc(/N=C/c2cc(Cl)cc(Cl)c2O)c(=O)[nH]1
inactive: A498 > 100 µM | A549 > 100 µM | ACHN 36.3 µM | EKVX 30.7 µM | Hs-578T 21.4 µM | IGROV-1 17 µM | KM12 24.2 µM | M14 21 µM | MCF7 25.8 µM | NCI-H23 24.6 µM | NCI-H460 39.9 µM | NCI/ADR-RES 21.8 µM | OVCAR-3 17.7 µM | OVCAR-5 88.1 µM | RXF 393 26.2 µM | SK-MEL-2 19.3 µM | SNB-19 32.8 µM | UACC-257 27.7 µM

CCO[C@H]1O[C@@H]2OC3(C)CCC4[C@H](C)CCC([C@H]1C)[C@]42OO3 (stereo not given in full)
inactive: A498 > 100 µM | A549 40.8 µM | ACHN 32.2 µM | EKVX > 49.1 µM | Hs-578T 29.9 µM | IGROV-1 > 73.8 µM | KM12 > 53.2 µM | M14 53.5 µM | MCF7 19.4 µM | NCI-H23 32.1 µM | NCI-H460 > 55 µM | NCI/ADR-RES 23 µM | OVCAR-3 15.5 µM | OVCAR-5 > 30.2 µM | RXF 393 > 100 µM | SK-MEL-2 > 100 µM | SNB-19 > 100 µM | SNB-75 > 74.1 µM | SW-620 > 44.9 µM
